Source: US20230338392A1, “SUBCUTANEOUS ADMINISTRATION OF AN ASBT INHIBITOR” (Albireo AB, priority 2022, published 2023)

Legend:
[1] = Plasma concentration following subcutaneous or intravenous administration; assay type: in vivo, male C57BL/6 mice
Experimental: Elobixibat was administered to male C57BL/6 mice (n=5) as a subcutaneous injection at a dose of 3 or 10 mg/kg or as an intravenous injection at a dose of 1 mg/kg (single injections), or as repeated subcutaneous injections at a dose of 1 mg/kg at day 1 and day 5. Elobixibat was formulated in 70% PEG400; 10% ethanol; and 20% water and given at a dosing volume of 5 mL/kg subcutaneously or 1 mL/kg intravenously. Blood samples were collected after 0.25, 0.5, 1, 2, 4, 6, 8 and 24 hours following subcutaneous administration and after 0.083, 0.25, 0.5, 1, 2, 4, 6, 8 and 24 hours following intravenous administration. Blood samples were taken from saphenous vein. 0.2% EDTA was used as the anticoagulant. The samples were analyzed by a discovery grade bioanalytical method developed for the estimation of elobixibat in plasma, using an LC-MS/MS system.
The results for single subcutaneous (3 or 10 mg/kg) and intravenous (1 mg/kg) administrations are shown in FIG. 1, and the results for repeated subcutaneous administrations (1 mg/kg at day 1 and day 5) are shown in FIG. 2.

DDC mice = assay: DDC in vivo model of cholestatic disease: serum chemistries; design: species or system male C57BL/6J WT mice
Description: (§1) Chronic feeding of 3,5-diethoxycarbonyl-1,4-dihydrocollidine (DDC) was used as an in vivo model for cholestatic liver injury. Chronic feeding of DDC produces an intraductal porphyrin plug which leads to ductular obstruction contributing to damage of biliary epithelia. The time course of the DDC model usually ranges from 1 to 6 weeks, depending on the severity of the cholangiopathy that the study requires. Chronic feeding of DDC in mice reproduces the main histopathological hallmarks of human cholestatic disease such as (1) remodeling of biliary compartments giving rise to ductular reaction, (2) periductular fibrosis, and (3) inflammatory infiltrate (Mariotti et al., Biochim Biophys Acta Mol Basis Dis 2018, vol. 1864, p. 1254-1261; Pose et al., Methods Mol. Biol. 2019, vol. 1981, p. 249-257).
(§2) Male C57BL/6J WT mice of 8 weeks old were used. After completion of quarantine and acclimatization period, animals were randomized based on body weight into experimental groups (n=7-9/group). Animals were fed chow (control diet) or chow plus 0.1% DDC (DDC diet) for 14 days, and treated once daily with vehicle (s.c.) or the ASBT inhibitor elobixibat at a dose of 0.3, 1.0 or 3.0 mg/kg (s.c.), as shown in Table 1. Animals were weighed at days 7, 11 and 14. Blood samples were collected at day 7. On day 11, animals were moved to individual cages with wire bottom for fecal collection. Blood, urine, tissue samples and 3-day fecal samples were collected at day 14.
Endpoints measured at the end of the study include fecal bile acid excretion, urine and serum bile acid concentration and composition, and serum chemistries reflecting liver status.

LCN2 (lipocalin-2) = assay: DDC model: mRNA expression of renal proximal tubule cell injury marker LCN2; assay type: in vivo, male C57BL/6J WT mice; conditions: DDC cholestatic mice, s.c. elobixibat versus vehicle, 14 days (FIG. 7)
Description: as §1
as §2, with “Blood, urine, tissue samples and 3-day fecal samples were collected at day 14.” left out

[2] = test system: KIM-1 (kidney injury molecule-1); assay: DDC model: mRNA expression of renal proximal tubule cell injury marker KIM-1; assay type: in vivo, male C57BL/6J WT mice; conditions: DDC cholestatic mice, s.c. elobixibat versus vehicle, 14 days (FIG. 6)
Description: as §1
as §2, with “Blood, urine, tissue samples and 3-day fecal samples were collected at day 14.” left out

[3] = subcutaneous administration (FIG. 1)

## CCCCC1(CCCC)CN(c2ccccc2)c2cc(SC)c(OCC(=O)N[C@@H](C(=O)NCC(=O)O)c3ccccc3)cc2S(=O)(=O)C1 [elobixibat, 1,1-dioxo-3,3-dibutyl-5-phenyl-7-methylthio-8-(N-{(R)-1′-phenyl-1′-[N′-(carboxymethyl)-carbamoyl]methyl}carbamoylmethoxy)-2,3,4,5-tetrahydro-1,5-benzothiazepine]
[1]; intravenous administration (FIG. 1)
  clearance: quick clearance
[1]; [3]
  bioavailability: high bioavailability
  duration of constant exposure: more than 24 hours
DDC mice; s.c. once daily 0.3, 1.0 or 3.0 mg/kg for 14 days (FIG. 5)
  serum alkaline phosphatase (ALP) levels: dose-dependent trend towards reduced
DDC mice; s.c. once daily 0.3, 1.0 or 3.0 mg/kg for 14 days, reduced at lowest dose, no additional reduction at higher doses (FIG. 3)
  serum bile acids: statistically significant reduction
DDC mice; s.c. once daily 0.3, 1.0 or 3.0 mg/kg for 14 days, reduced at lowest dose, no additional reduction at higher doses (FIG. 4)
  serum total bilirubin: statistically significant reduction
LCN2 (lipocalin-2)
  mRNA expression for LCN2: reduced
[2]
  mRNA expression for KIM-1: reduced
